Measured values as given in ChEMBL document CHEMBL1137486, “N4-phenyl modifications of N2-(2-hydroxyl)ethyl-6-(pyrrolidin-1-yl)-1,3,5-triazine-2,4-diamines enhance glucocerebrosidase inhibition by small molecules with potential as chemical chaperones for Gaucher disease” (Bioorg Med Chem Lett, 2007).
The source made the active and inactive calls. No cut-off for these calls is given here.

molecular target: T1, Beta-hexosaminidase subunit alpha (Bos taurus) (UniProt Q0V8R6); assay: Inhibition of bovine beta hexosaminidase upto 77 uM
T1 sequence (whole entry): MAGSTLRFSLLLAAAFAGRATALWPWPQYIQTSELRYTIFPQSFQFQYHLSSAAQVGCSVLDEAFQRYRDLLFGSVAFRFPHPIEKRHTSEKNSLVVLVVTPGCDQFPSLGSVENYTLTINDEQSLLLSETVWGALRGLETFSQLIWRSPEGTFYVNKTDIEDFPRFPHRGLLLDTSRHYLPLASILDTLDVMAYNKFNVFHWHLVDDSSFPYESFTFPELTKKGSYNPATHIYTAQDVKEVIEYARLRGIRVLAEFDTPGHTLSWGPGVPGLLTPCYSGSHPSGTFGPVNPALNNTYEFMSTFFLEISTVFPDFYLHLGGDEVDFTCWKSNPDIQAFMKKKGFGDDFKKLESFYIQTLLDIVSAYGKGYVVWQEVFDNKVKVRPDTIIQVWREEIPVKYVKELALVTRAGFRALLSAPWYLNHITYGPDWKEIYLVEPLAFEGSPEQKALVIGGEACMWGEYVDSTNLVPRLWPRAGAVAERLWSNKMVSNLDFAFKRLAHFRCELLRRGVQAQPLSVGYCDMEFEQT

| Activity | SMILES |
| --- | --- |
| inactive | CC(C)(C)Oc1ccccc1Nc1nc(NCCO)nc(N2CCCC2)n1 |

molecular target: T2, Lysosomal acid glucosylceramidase (Homo sapiens) (UniProt P04062); assay: (§1) Inhibition of glucocerebrosidase
T2 sequence (whole entry): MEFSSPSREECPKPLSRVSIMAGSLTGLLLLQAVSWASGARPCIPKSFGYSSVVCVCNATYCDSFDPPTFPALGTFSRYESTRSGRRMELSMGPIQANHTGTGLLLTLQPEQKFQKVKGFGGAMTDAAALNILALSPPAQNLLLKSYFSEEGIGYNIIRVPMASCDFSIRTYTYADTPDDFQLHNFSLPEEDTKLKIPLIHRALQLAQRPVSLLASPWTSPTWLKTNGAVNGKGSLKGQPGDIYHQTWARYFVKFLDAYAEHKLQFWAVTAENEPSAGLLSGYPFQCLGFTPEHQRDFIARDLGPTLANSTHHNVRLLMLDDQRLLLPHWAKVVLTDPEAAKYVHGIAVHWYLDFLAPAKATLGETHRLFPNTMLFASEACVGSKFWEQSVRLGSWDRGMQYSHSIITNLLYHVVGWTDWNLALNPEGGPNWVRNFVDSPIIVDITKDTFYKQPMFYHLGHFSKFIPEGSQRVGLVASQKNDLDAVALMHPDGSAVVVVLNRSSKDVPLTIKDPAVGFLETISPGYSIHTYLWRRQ

| Activity | SMILES |
| --- | --- |
| inactive | COc1ccc(Cl)cc1Nc1nc(NCc2ccco2)nc(N2CCCC2)n1 |
| inactive | COC(=O)CNc1nc(Nc2ccccc2OC)nc(N2CCCC2)n1 |
| inactive | NC(=O)c1ccccc1Nc1nc(NCCO)nc(N2CCCC2)n1 |
| inactive | COc1ccccc1Nc1nc(NCCNC(C)=O)nc(N2CCCC2)n1 |
| inactive | COc1ccc(Cl)cc1Nc1nc(N(CCO)CCO)nc(N2CCCC2)n1 |
| inactive | CCN(CC)c1nc(NCCO)nc(Nc2cc(Cl)ccc2OC)n1 |
| inactive | COc1ccccc1Nc1nc(NCC(N)=O)nc(N2CCCC2)n1 |
| inactive | CC(=O)Nc1ccccc1Nc1nc(NCCO)nc(N2CCCC2)n1 |

Further lines, the molecule ahead of its results:

| SMILES | Activity |
| --- | --- |
| O=[N+]([O-])c1ccccc1Nc1nc(NCCO)nc(N2CCCC2)n1 | inactive |
| COCCNc1nc(Nc2cc(Cl)ccc2OC)nc(N2CCCC2)n1 | inactive |
| COc1ccc(Cl)cc1Nc1nc(NCc2ccccc2)nc(N2CCCC2)n1 | inactive |
| COc1ccccc1Nc1nc(NCCCCO)nc(N2CCCC2)n1 | inactive |
| COc1ccc(Cl)cc1Nc1nc(NCCO)nc(N2CCCCCC2)n1 | inactive |
| COc1ccc(Cl)cc1Nc1nc(N)nc(N2CCCC2)n1 | inactive |

molecular target: T3, Lysosomal acid glucosylceramidase (Homo sapiens, UniProt P04062); assay: as §1
T3 sequence (P04062 whole entry): T2 sequence (whole entry)

| IC50 [µM] | SMILES |
| --- | --- |
| 1.08 | COc1ccccc1Nc1nc(NCCO)nc(N2CCCC2)n1 |
| 31.1 | COc1ccc(Cl)cc1Nc1nc(NCCO)nc(N2CCCCC2)n1 |
| 16.5 | OCCNc1nc(Nc2ccccc2)nc(N2CCCC2)n1 |
| 0.33 | CC(C)(C)Oc1ccccc1Nc1nc(NCCO)nc(N2CCCC2)n1 |
| 2.22 | COc1ccc(-c2ccccc2)cc1Nc1nc(NCCO)nc(N2CCCC2)n1 |
| 31.4 | OCCNc1nc(Nc2ccccc2OCc2ccccc2)nc(N2CCCC2)n1 |
| 3.44 | CC(C)Oc1ccc(Cl)cc1Nc1nc(NCCO)nc(N2CCCC2)n1 |
| 0.37 | OCCNc1nc(Nc2cc(-c3ccccc3)ccc2O)nc(N2CCCC2)n1 |
| 2.31 | COc1ccccc1Nc1nc(NCCO)nc(N2CCC2)n1 |
| 6.1 | CCCCNc1nc(NCCO)nc(Nc2ccccc2OC)n1 |
| 29 | OCCNc1nc(Nc2ccccc2Cl)nc(N2CCCC2)n1 |
| 20.7 | COc1ccccc1Nc1nc(NCC(C)O)nc(N2CCCC2)n1 (configuration not stated) |
| 0.77 | CCOc1ccccc1Nc1nc(NCCO)nc(N2CCCC2)n1 |
| 18.8 | COc1ccccc1Nc1nc(NCCO)nc(NCc2ccccc2)n1 |
| 4.9 | COc1ccc(Nc2nc(NCCO)nc(N3CCCC3)n2)c(OC)c1 |
| 1.04 | CC(C)(C)Oc1ccc(Cl)cc1Nc1nc(NCCO)nc(N2CCCC2)n1 |
| 2.65 | COc1ccc(C(F)(F)F)cc1Nc1nc(NCCO)nc(N2CCCC2)n1 |
| 10 | Cc1ccc(Nc2nc(NCCO)nc(N3CCCC3)n2)cc1 |
| 8.25 | COc1cccc(Nc2nc(NCCO)nc(N3CCCC3)n2)c1 |

More lines, now with the values behind:

| SMILES | IC50 [µM] |
| --- | --- |
| CCOc1ccc(Cl)cc1Nc1nc(NCCO)nc(N2CCCC2)n1 | 0.96 |
| OCCNc1nc(Nc2ccccc2Oc2ccccc2)nc(N2CCCC2)n1 | 21.7 |
| Cc1ccccc1Nc1nc(NCCO)nc(N2CCCC2)n1 | 3.94 |
| COc1ccc(Nc2nc(NCCO)nc(N3CCCC3)n2)cc1 | 8.8 |
| COc1ccc(Cl)cc1Nc1nc(NCCO)nc(N2CCOCC2)n1 | 12.1 |
| Cc1cccc(Nc2nc(NCCO)nc(N3CCCC3)n2)c1 | 6.19 |
| COc1ccccc1Nc1nc(NCC(O)Cc2ccccc2)nc(N2CCCC2)n1 (configuration not stated) | 6.8 |
| OCCNc1nc(Nc2ccc(Cl)cc2)nc(N2CCCC2)n1 | 6.34 |
| OCCNc1nc(Nc2cc(Cl)ccc2O)nc(N2CCCC2)n1 | 0.73 |
| OCCNc1nc(Nc2cccc(Cl)c2)nc(N2CCCC2)n1 | 6.69 |
| OCCNc1nc(Nc2ccccc2OC(F)(F)F)nc(N2CCCC2)n1 | 3.34 |
| CCCCNc1nc(Nc2cc(Cl)ccc2OC)nc(N2CCCC2)n1 | 7.77 |
| COc1ccc(OC)c(Nc2nc(NCCO)nc(N3CCCC3)n2)c1 | 1.53 |
| CSc1ccccc1Nc1nc(NCCO)nc(N2CCCC2)n1 | 2.39 |
| COc1ccccc1Nc1nc(NCCO)nc(N2CCC(F)(F)C2)n1 | 7.75 |
| OCCNc1nc(Nc2ccccc2O)nc(N2CCCC2)n1 | 2 |

tested on: Oryza sativa; assay: Inhibition of rice alpha glucosidase upto 77 uM

| Activity | SMILES |
| --- | --- |
| inactive | CC(C)(C)Oc1ccccc1Nc1nc(NCCO)nc(N2CCCC2)n1 |

molecular target: Alpha-galactosidase (Coffea arabica) (UniProt Q5DUH8); assay: Inhibition of coffee bean alpha galactosidase upto 77 uM
Sequence (Q5DUH8 as listed by the source): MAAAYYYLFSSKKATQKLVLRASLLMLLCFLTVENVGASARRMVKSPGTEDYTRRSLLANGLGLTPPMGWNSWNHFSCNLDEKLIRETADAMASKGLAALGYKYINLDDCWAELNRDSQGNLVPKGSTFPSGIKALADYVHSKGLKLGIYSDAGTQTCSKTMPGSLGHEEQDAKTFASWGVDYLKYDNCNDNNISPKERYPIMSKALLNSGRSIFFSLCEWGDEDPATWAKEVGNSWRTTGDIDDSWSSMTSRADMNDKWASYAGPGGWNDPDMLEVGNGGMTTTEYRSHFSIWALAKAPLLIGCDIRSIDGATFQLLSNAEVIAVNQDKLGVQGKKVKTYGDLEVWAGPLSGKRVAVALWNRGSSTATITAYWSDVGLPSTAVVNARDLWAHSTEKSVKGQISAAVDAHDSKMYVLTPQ

| Activity | SMILES |
| --- | --- |
| inactive | CC(C)(C)Oc1ccccc1Nc1nc(NCCO)nc(N2CCCC2)n1 |
